From ChEMBL document CHEMBL1153945 (Bioorg Med Chem, 2009) come the findings set out here.

The target in one experiment is Nitric oxide synthase 1 (Rattus norvegicus, UniProt P29476).
Another experiment deals with T1, Nitric oxide synthase 3 (Bos taurus, UniProt P29473).
T1 sequence (P29473 whole entry): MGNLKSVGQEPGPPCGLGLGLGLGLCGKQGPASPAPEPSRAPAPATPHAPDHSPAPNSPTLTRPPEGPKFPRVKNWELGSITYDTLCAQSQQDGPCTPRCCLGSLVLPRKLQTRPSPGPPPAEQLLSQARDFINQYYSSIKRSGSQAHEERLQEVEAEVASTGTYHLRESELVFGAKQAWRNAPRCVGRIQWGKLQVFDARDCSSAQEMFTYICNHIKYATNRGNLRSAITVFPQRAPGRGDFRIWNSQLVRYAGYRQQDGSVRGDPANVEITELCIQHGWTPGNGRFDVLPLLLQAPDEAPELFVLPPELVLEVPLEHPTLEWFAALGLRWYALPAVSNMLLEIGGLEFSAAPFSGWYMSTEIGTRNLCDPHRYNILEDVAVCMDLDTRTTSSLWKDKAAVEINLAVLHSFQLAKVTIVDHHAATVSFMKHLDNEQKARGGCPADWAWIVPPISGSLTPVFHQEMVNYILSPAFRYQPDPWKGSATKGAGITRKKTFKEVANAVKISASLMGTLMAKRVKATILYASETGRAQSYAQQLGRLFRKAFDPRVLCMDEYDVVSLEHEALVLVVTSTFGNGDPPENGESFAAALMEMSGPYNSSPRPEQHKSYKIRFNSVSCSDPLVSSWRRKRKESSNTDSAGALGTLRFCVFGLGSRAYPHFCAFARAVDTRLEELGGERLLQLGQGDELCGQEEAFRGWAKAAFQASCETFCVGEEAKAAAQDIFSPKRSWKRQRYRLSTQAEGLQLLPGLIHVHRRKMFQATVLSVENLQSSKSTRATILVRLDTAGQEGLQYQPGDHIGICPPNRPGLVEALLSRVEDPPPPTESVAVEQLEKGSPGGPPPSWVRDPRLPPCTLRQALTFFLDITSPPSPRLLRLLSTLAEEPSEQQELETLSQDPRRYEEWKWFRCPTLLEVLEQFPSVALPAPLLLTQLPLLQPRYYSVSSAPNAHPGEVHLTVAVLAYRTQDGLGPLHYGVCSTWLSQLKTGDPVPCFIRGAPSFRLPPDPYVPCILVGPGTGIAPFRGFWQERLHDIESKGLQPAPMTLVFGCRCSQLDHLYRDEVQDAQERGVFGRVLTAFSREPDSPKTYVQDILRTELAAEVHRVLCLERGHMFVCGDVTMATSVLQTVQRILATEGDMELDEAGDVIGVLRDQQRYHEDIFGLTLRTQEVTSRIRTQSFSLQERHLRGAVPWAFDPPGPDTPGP

For experiment [1], the target named is T2, Nitric oxide synthase, inducible (Mus musculus, UniProt P29477).
T2 sequence (P29477 whole entry): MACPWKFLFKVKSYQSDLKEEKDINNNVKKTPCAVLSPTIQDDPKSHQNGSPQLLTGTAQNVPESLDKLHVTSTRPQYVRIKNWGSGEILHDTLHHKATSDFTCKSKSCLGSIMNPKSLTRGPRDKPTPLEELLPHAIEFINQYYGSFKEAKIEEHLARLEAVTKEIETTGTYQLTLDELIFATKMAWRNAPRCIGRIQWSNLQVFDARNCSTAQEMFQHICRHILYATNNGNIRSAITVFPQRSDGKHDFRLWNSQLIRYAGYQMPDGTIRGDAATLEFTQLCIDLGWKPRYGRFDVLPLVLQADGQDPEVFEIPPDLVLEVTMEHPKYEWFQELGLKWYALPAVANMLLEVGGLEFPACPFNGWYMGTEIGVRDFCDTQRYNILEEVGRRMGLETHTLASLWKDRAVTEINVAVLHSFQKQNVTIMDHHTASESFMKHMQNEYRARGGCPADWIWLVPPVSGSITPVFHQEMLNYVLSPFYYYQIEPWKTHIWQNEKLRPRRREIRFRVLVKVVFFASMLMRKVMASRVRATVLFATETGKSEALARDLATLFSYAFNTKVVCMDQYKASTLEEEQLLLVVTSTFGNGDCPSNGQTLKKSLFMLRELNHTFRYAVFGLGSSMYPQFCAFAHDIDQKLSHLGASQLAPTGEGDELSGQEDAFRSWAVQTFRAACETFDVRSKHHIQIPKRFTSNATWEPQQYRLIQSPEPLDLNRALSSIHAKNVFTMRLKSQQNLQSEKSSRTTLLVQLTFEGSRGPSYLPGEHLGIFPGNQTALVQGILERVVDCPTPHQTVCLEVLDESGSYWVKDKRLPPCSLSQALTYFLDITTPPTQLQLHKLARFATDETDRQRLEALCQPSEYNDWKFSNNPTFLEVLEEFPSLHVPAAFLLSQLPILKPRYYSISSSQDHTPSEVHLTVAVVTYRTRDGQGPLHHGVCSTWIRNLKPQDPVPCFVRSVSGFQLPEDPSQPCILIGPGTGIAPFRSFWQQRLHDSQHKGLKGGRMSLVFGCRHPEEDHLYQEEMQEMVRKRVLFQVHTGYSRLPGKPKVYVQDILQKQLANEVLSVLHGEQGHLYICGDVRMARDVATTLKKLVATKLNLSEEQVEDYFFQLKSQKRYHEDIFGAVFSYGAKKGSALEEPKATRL
Description: Inhibition of mouse recombinant iNOS expressed in Escherichia coli assessed as nitric oxide formation by hemoglobin capture assay

Chain of Nitric oxide synthase 1 (P29476 whole entry): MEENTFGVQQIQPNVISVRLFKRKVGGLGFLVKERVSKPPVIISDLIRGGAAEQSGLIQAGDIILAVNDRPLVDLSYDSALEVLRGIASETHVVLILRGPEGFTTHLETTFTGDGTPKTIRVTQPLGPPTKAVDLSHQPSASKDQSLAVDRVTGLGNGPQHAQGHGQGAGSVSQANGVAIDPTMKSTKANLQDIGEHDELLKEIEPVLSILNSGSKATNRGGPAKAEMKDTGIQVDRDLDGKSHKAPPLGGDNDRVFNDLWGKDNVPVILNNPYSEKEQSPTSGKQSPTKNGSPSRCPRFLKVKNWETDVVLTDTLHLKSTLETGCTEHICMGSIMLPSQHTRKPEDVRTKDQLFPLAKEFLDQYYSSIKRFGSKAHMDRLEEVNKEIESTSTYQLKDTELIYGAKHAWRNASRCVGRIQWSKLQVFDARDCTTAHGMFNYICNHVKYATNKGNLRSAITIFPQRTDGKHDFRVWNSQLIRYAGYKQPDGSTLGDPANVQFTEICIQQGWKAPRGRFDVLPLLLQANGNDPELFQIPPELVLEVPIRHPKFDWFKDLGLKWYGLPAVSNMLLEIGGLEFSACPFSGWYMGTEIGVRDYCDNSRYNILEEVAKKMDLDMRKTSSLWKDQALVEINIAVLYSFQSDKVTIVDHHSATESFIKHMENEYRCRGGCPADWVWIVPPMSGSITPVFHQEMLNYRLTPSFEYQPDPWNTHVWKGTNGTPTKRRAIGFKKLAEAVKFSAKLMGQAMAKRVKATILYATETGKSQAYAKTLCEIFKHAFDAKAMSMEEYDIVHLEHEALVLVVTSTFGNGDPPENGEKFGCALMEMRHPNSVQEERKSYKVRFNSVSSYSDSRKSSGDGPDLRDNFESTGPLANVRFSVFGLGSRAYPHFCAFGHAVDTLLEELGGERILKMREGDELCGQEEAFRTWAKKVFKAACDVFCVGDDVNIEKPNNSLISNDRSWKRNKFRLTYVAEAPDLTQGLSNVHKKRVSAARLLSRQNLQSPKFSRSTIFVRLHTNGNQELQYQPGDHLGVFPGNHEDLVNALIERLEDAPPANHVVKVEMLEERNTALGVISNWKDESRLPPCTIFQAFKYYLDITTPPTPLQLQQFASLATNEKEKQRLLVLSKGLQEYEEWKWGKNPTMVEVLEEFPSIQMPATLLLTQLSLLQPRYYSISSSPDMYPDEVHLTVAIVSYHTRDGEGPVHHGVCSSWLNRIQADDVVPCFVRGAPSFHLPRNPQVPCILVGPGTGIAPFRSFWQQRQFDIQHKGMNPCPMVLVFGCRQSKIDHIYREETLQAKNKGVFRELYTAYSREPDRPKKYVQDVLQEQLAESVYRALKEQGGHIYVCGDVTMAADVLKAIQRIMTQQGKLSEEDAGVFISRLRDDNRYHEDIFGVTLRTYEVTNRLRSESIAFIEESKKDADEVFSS
Description for Nitric oxide synthase 1: Inhibition of rat recombinant nNOS expressed in Escherichia coli assessed as nitric oxide formation by hemoglobin capture assay
Description for Nitric oxide synthase 3: Inhibition of bovine recombinant eNOS expressed in Escherichia coli assessed as nitric oxide formation by hemoglobin capture assay

For `Cc1cc(N)nc(C[C@H]2CNC[C@H]2NCCOCCc2cccc(F)c2)c1` (racemic), the Ki turned out to be 0.4 µM at Nitric oxide synthase 1, 33 µM on Nitric oxide synthase 3 and 4 µM in experiment [1].

At Nitric oxide synthase 1, `Cc1cc(N)nc(C[C@H]2CNC[C@H]2NC(=O)CNCCc2cccc(F)c2)c1` (racemic) registered a Ki of 0.053 µM. In other words, the double-digit nanomolar range.

On to `Cc1cc(N)nc(C[C@H]2CNC[C@H]2OCCNC(=O)Cc2cccc(F)c2)c1` (racemic), for which the figures for the inhibition constant (Ki) at Nitric oxide synthase 1 and at Nitric oxide synthase 3 were 5 µM and 107 µM, respectively. In the case of `Cc1cc(N)nc(C[C@H]2CNC[C@H]2OCC(=O)NCCc2cccc(F)c2)c1` (racemic), the affinity at Nitric oxide synthase 3, expressed as Ki, was 145 µM.

As usually defined, the Ki is a dissociation constant, usually derived from enzyme kinetics or from competition with a known ligand. A lower Ki goes with tighter binding.
